Reference: PMC12778052 (Science Advances, 2026)

Assays:
[1] = test system: RT112 cells; assay: In vitro binding of [^68Ga]AJ647 to RT112 cells; format: cell-based; conditions: 1 × 10^6 cells, ~1 μCi, 30 min, 4°C, means ± SD, n = 4
Protocol: (§1) In vitro binding of [^68Ga]AJ647 to T24, SCaBER, RT112, UC9, UC14, and HT1376 cells was determined by incubating 1 × 10^6 cells with ~1 μCi of [^68Ga]AJ647 for 30 min at 4°C. After incubation, cells were washed three times with ice-cold PBS containing 0.1% Tween 20 and counted on an automated gamma counter. All cell radioactivity uptake studies were performed in quadruplicate for each cell line and repeated three times.

[2] = test system: SCaBER cells; assay: In vitro binding of [^68Ga]AJ647 to SCaBER cells; format: cell-based; conditions: 1 × 10^6 cells, ~1 μCi, 30 min, 4°C, means ± SD, n = 4
Protocol: as §1

[3] = target: T1, mouse Nectin-4 (Mus musculus, UniProt Q8R007); assay: SPR affinity for recombinant mouse Nectin-4; format: binding; conditions: mouse Nectin-4
T1 construct: purchased R&D Systems 3116-N4-050
T1 sequence (Q8R007 31-347 limits assumed): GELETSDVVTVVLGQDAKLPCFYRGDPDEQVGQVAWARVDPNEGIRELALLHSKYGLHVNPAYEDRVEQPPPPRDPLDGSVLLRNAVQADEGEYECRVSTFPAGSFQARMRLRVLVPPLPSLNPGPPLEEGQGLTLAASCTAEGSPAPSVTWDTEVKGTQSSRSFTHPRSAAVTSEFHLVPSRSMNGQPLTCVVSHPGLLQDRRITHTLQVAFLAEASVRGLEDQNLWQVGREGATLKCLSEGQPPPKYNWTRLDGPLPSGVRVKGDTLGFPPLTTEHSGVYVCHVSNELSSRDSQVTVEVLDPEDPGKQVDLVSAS
Protocol: The affinity of AJ647 for human and mouse Nectin-4 recombinant proteins was evaluated by SPR. The experiments were conducted using a Biacore T200 instrument with a CM5 chip at 25°C. The ligands used were His-tagged human Nectin-4 (R&D Systems, catalog no. 2659-N4-050, 44 kDa, 0.2 mg/ml stock concentration) and mouse Nectin-4 proteins (R&D Systems, catalog no. 3116-N4-050, 45 kDa, 0.2 mg/ml stock concentration), which were immobilized onto the CM5 chip. AJ647 (3057.5 Da, 10 mM stock concentration) was used as the analyte, which flowed over the ligand-immobilized surface. FC2 and FC4 was used as the experimental flow cell, while FC1 and FC3 served as the reference. An anti-His antibody (1 mg/ml stock concentration) was immobilized on all flow cells using standard amine coupling chemistry. […] Human Nectin-4 was captured onto FC2 at a level of ~600 RU, with a 1:20 dilution and 10 μg/ml diluted concentration in PBS-P. Mouse Nectin-4 was captured onto FC4 at a level of 600 RU, with a 1:20 dilution and 10 μg/ml diluted concentration in PBS-P. The theoretical maximum response (Rmax ) values were calculated on the basis of the captured response values (table S1), assuming a 1:1 interaction mechanism. […] All association and dissociation kinetics were evaluated by 1:1 kinetics model fitting.

[4] = test system: SCaBER cells; assay: [^68Ga]AJ647 binding after EV preincubation, SCaBER cells; format: cell-based; conditions: EV 60 nM preincubated 30 min, P < 0.0001
Protocol: (§2) An FITC analog of EV was made using the manufacturer’s recommended protocol (Thermo Fisher Scientific, no. 46409). Briefly, 1 mg of EV was incubated with FITC-NHS ester at a 5:1 molar ratio overnight at 4°C at 0.1 M borate buffer (pH 8.0). Excess unbound FITC-NHS ester was washed off by performing buffer exchange with 1× PBS using three rounds of ultracentrifugation at 4000g for 10 min (3-kDa molecular weight cutoff filter, Amicon, no. UFC900308). The effect of nonradioactive AJ647 on EV binding to Nectin-4 was assessed by incubating HT1376 cells at varying concentrations (5.4 μM to 0.01 nM using a serial dilution) of AJ647 for 30 min at 4°C. Unbound AJ647 was washed off using 3 ml of cold PBS. Cells were incubated with EV-FITC for 30 min at 4°C. Excess EV-FITC was washed off using 3 ml of cold PBS. The mean fluorescence intensity was measured using a flow cytometer, and data are reported as the percentage of 0 nM AJ647. For the effect of EV on [^68Ga]AJ647 binding, EV was used at concentrations of 90 to 0.04 nM using serial dilutions for 30 min at 4°C. Unbound EV was washed off using cold PBS. Then, cells were incubated with 1 μCi of [^68Ga]AJ647 for an additional 30 min. Excess [^68Ga]AJ647 was washed off three times with cold PBS. Samples were read in an automated gamma counter, and data are reported as the percentage of 1-μCi standard counts.

[5] = test system: HT1376 cells; assay: [^68Ga]AJ647 binding after EV preincubation, HT1376 cells; format: cell-based; conditions: EV 60 nM preincubated 30 min, P < 0.0001
Protocol: as §2

[6] = lowest exposure (Cavg) quartile; cited from earlier work
Text: Real-time assessment of tumor heterogeneity remains a critical challenge in optimizing targeted therapies. Despite the importance of sensitive assays for real-time insights into drug-tumor interactions, such tools remain limited ([6], [25]). Model-based approaches that integrate nonclinical and clinical data—such as PK and PD parameters—can facilitate efficacy and safety predictions ([26]). However, these models often fail to fully account for the dynamic complexities of tumor heterogeneity and intrinsic factors that affect drug PK/PD, especially in real time. This is particularly true for mac ...

Compound: CSCC[C@@H]1NC(=O)[C@@H]2CSCCC(=O)N3CN(CN(C3)C(=O)CCSC[C@H](NC(=O)CCOCCOCCOCCOCCOCCOCCOCCOCCOCCOCCOCCOCCNC(=O)CN3CCN(CC(=O)O)CCN(CC(=O)O)CC3)C(=O)N3CCC[C@H]3C(=O)N[C@@H](Cc3cccc4ccccc34)C(=O)N[C@@H](CC(=O)O)C(=O)N2)C(=O)CCSC[C@@H](C(N)=O)NC(=O)[C@H](Cc2c[nH]c3ccccc23)NC(=O)[C@@H]2C[C@@H](O)CN2C(=O)[C@@H]2CCCN2C(=O)[C@H]([C@@H](C)O)NC(=O)[C@H](CO)NC(=O)[C@H](Cc2c[nH]c3ccccc23)NC(=O)[C@@H](CC(=O)O)NC(=O)[C@H](CCCCNC(=N)N)NC1=O [[^68Ga]AJ647, metal not drawn]
- [^68Ga]AJ647 uptake [1]: 1.9 ± 0.18 %IA
- [^68Ga]AJ647 uptake [2]: 1.6 ± 0.13 %IA
- koff [3]: 0.0101 ± 0.00295 s⁻¹

Compound: enfortumab vedotin [EV]
- effect on [^68Ga]AJ647 binding [4]: significantly reduced [^68Ga]AJ647 binding
- effect on [^68Ga]AJ647 binding [5]: significantly reduced [^68Ga]AJ647 binding
- response rate [6]: 32%
